Measurements published in ChEMBL document CHEMBL1201862, “PubChem BioAssay data set” (2004).
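A five-concentration, 48-hour dose response in 96-well plates underlies each endpoint, interpolated linearly between surrounding concentrations. Abbreviation: GI50, concentration required for 50% inhibition of growth.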 Calls of active or inactive are those of the source. Rule as the data show it: active = GI50 up to about 1.1 µM and inactive = higher.

Legend:
Assay in all cases: NCI anticancer screen, dose series, 48 h
786-0 = test system: 786-0
A549 = test system: A549
ACHN = test system: ACHN
CCRF-CEM = test system: CCRF-CEM
COLO 205 = test system: COLO 205
DMS-114 = test system: DMS-114
DMS-273 = test system: DMS-273
EKVX = test system: EKVX
HCC 2998 = test system: HCC 2998
HCT-116 = test system: HCT-116
HCT-15 = test system: HCT-15
HL-60 = test system: HL-60
HOP-62 = test system: HOP-62
HT-29 = test system: HT-29
IGROV-1 = test system: IGROV-1
K562 = test system: K562
KM-20L2 = test system: KM-20L2
KM12 = test system: KM12
LOX IMVI = test system: LOX IMVI
LXFL 529 = test system: LXFL 529
M14 = test system: M14
M19-MEL = test system: M19-MEL
MOLT-4 = test system: MOLT-4
Malme-3M = test system: Malme-3M
NCI-H226 = test system: NCI-H226
NCI-H23 = test system: NCI-H23
NCI-H460 = test system: NCI-H460
NCI-H522 = test system: NCI-H522
OVCAR-3 = test system: OVCAR-3
OVCAR-4 = test system: OVCAR-4
OVCAR-5 = test system: OVCAR-5
OVCAR-8 = test system: OVCAR-8
RPMI-8226 = test system: RPMI-8226
RXF 393 = test system: RXF 393
SF-268 = test system: SF-268
SF-295 = test system: SF-295
SF-539 = test system: SF-539
SK-MEL-28 = test system: SK-MEL-28
SK-MEL-2 = test system: SK-MEL-2
SK-MEL-5 = test system: SK-MEL-5
SN12C = test system: SN12C
SNB-19 = test system: SNB-19
SNB-75 = test system: SNB-75
SNB-78 = test system: SNB-78
SR = test system: SR
SW-620 = test system: SW-620
TK-10 = test system: TK-10
U-251 = test system: U-251
UACC-62 = test system: UACC-62
UO-31 = test system: UO-31
XF498 = test system: XF498
DLD-1 = test system: DLD-1
HOP-18 = test system: HOP-18
HOP-92 = test system: HOP-92
UACC-257 = test system: UACC-257

For `C#CCN(Cc1ccc2nc(-c3ccccc3)c(N)nc2c1)c1cc(OC)c(OC)c(OC)c1`, the GI50 (786-0) was 44.7 µM (inactive), the GI50 (A549) was 23.2 µM (inactive) and the GI50 (ACHN) was 22.8 µM (inactive). The GI50 (CCRF-CEM) was 17.9 µM (inactive), the GI50 (COLO 205) was 21.2 µM (inactive) and the GI50 (DMS-114) was 14 µM (inactive). The GI50 (DMS-273) was 22.1 µM (inactive), the GI50 (EKVX) was 31.2 µM (inactive) and the GI50 (HCC 2998) was 57.4 µM (inactive). The GI50 (HCT-116) was 19.2 µM (inactive), the GI50 (HCT-15) was 31.9 µM and the GI50 (HL-60) was 17.9 µM (inactive). The GI50 (HOP-62) was 39.2 µM (inactive), the GI50 (HT-29) was 23.4 µM (inactive) and the GI50 (IGROV-1) was 37.1 µM (inactive). The GI50 (K562) was 23.8 µM (inactive), the GI50 (KM-20L2) was 41.3 µM (inactive) and the GI50 (KM12) was > 10 µM (inactive). The GI50 (LOX IMVI) was 25.2 µM (inactive), the GI50 (LXFL 529) was 19.3 µM (inactive) and the GI50 (M14) was 25.5 µM (inactive). For the same compound, the GI50 (M19-MEL) was 27 µM (inactive), the GI50 (MOLT-4) was 12.5 µM (inactive) and the GI50 (Malme-3M) was 26.9 µM (inactive). For the same compound, the GI50 (NCI-H226) was 16.7 µM (inactive), the GI50 (NCI-H23) was 25.1 µM (inactive) and the GI50 (NCI-H460) was 22 µM (inactive). The GI50 (NCI-H522) was 20.9 µM (inactive), the GI50 (OVCAR-3) was 15.4 µM (inactive) and the GI50 (OVCAR-4) was 27.9 µM (inactive). The GI50 (OVCAR-5) was 48.5 µM (inactive), the GI50 (OVCAR-8) was 30.4 µM (inactive) and the GI50 (RPMI-8226) was 11.2 µM (inactive). For the same compound, the GI50 (RXF 393) was 25.5 µM (inactive), the GI50 (SF-268) was 40.7 µM (inactive) and the GI50 (SF-295) was 18.7 µM (inactive). For the same compound, the GI50 (SF-539) was 36.6 µM (inactive), the GI50 (SK-MEL-28) was 37.1 µM (inactive) and the GI50 (SK-MEL-2) was 23.1 µM (inactive). For the same compound, the GI50 (SK-MEL-5) was 11.9 µM (inactive), the GI50 (SN12C) was 32.1 µM (inactive) and the GI50 (SNB-19) was 40.5 µM (inactive). The GI50 (SNB-75) was 30.4 µM (inactive), the GI50 (SNB-78) was 22.9 µM (inactive) and the GI50 (SR) was 13.9 µM (inactive). The GI50 (SW-620) was 36.5 µM (inactive), the GI50 (TK-10) was 46.1 µM (inactive) and the GI50 (U-251) was 37 µM (inactive). For the same compound, the GI50 (UACC-62) was 20 µM (inactive), the GI50 (UO-31) was 23.1 µM (inactive) and the GI50 (XF498) was 30 µM (inactive).

For `Cc1ccc(S(=O)(=O)c2ccc(C)cc2[N+](=O)[O-])c([N+](=O)[O-])c1`, the GI50 (786-0) was > 100 µM (inactive), the GI50 (A549) was > 100 µM (inactive) and the GI50 (ACHN) was 44.9 µM (inactive). The GI50 (CCRF-CEM) was > 100 µM (inactive), the GI50 (COLO 205) was > 100 µM (inactive) and the GI50 (DMS-114) was > 100 µM (inactive). For the same compound, the GI50 (DMS-273) was > 100 µM (inactive), the GI50 (EKVX) was > 100 µM (inactive) and the GI50 (HCC 2998) was > 100 µM (inactive). For the same compound, the GI50 (HCT-116) was > 100 µM (inactive), the GI50 (HCT-15) was greater than 100 µM and the GI50 (HOP-62) was > 100 µM (inactive). The GI50 (HT-29) was > 100 µM (inactive), the GI50 (IGROV-1) was > 100 µM (inactive) and the GI50 (K562) was > 100 µM (inactive). The GI50 (KM-20L2) was > 100 µM (inactive), the GI50 (KM12) was > 100 µM (inactive) and the GI50 (LOX IMVI) was > 100 µM (inactive). The GI50 (LXFL 529) was > 100 µM (inactive), the GI50 (M14) was > 100 µM (inactive) and the GI50 (M19-MEL) was > 100 µM (inactive). The GI50 (MOLT-4) was > 10 µM (inactive), the GI50 (Malme-3M) was > 100 µM (inactive) and the GI50 (NCI-H226) was > 100 µM (inactive). For the same compound, the GI50 (NCI-H23) was > 100 µM (inactive), the GI50 (NCI-H460) was > 100 µM (inactive) and the GI50 (NCI-H522) was > 100 µM (inactive). The GI50 (OVCAR-3) was > 100 µM (inactive), the GI50 (OVCAR-4) was 89.9 µM (inactive) and the GI50 (OVCAR-5) was > 100 µM (inactive). For the same compound, the GI50 (OVCAR-8) was > 100 µM (inactive), the GI50 (RPMI-8226) was > 100 µM (inactive) and the GI50 (RXF 393) was > 100 µM (inactive). The GI50 (SF-268) was > 100 µM (inactive), the GI50 (SF-295) was > 100 µM (inactive) and the GI50 (SF-539) was > 100 µM (inactive). The GI50 (SK-MEL-28) was > 100 µM (inactive), the GI50 (SK-MEL-2) was > 100 µM (inactive) and the GI50 (SK-MEL-5) was > 100 µM (inactive). The GI50 (SN12C) was > 100 µM (inactive), the GI50 (SNB-19) was > 100 µM (inactive) and the GI50 (SNB-75) was 18.5 µM (inactive). The GI50 (SNB-78) was > 100 µM (inactive), the GI50 (SR) was > 100 µM (inactive) and the GI50 (SW-620) was > 100 µM (inactive). The GI50 (TK-10) was > 100 µM (inactive), the GI50 (U-251) was > 100 µM (inactive) and the GI50 (UACC-62) was > 100 µM (inactive). For the same compound, the GI50 (UO-31) was > 100 µM (inactive) and the GI50 (XF498) was > 100 µM (inactive).

In the case of `C1=C2/CC[C@H](Sc3ccccc3)C2C2(CCCCC/1)OCCO2` (stereo partly specified), the GI50 (786-0) is reported as 42.4 µM (inactive), the GI50 (ACHN) is reported as 26.7 µM (inactive) and the GI50 (CCRF-CEM) is reported as 28.6 µM (inactive). The GI50 (COLO 205) was 21.6 µM (inactive), the GI50 (DLD-1) was 33 µM (inactive) and the GI50 (DMS-273) was 25.4 µM (inactive). For the same compound, the GI50 (EKVX) was 32.9 µM (inactive), the GI50 (HCC 2998) was 23.5 µM (inactive) and the GI50 (HCT-116) was 16.5 µM (inactive). For the same compound, the GI50 (HL-60) was 8.41 µM (inactive), the GI50 (HOP-18) was 29.9 µM (inactive) and the GI50 (HOP-62) was 19.3 µM (inactive). For the same compound, the GI50 (HOP-92) was 3.72 µM (inactive), the GI50 (HT-29) was 14.4 µM (inactive) and the GI50 (IGROV-1) was 27.9 µM (inactive). For the same compound, the GI50 (K562) was 24.7 µM (inactive), the GI50 (KM-20L2) was 18.2 µM (inactive) and the GI50 (KM12) was 26.5 µM (inactive). The GI50 (LOX IMVI) was 15.2 µM (inactive), the GI50 (M19-MEL) was 15.6 µM (inactive) and the GI50 (MOLT-4) was 16.6 µM (inactive). The GI50 (Malme-3M) was 22.1 µM (inactive), the GI50 (NCI-H226) was 23.6 µM (inactive) and the GI50 (NCI-H23) was 16.2 µM (inactive). For the same compound, the GI50 (NCI-H460) was 21.5 µM (inactive), the GI50 (OVCAR-3) was 18.7 µM (inactive) and the GI50 (OVCAR-8) was 39.3 µM (inactive). For the same compound, the GI50 (RPMI-8226) was 17.6 µM (inactive), the GI50 (RXF 393) was 15.7 µM (inactive) and the GI50 (SF-268) was 39.2 µM (inactive). For the same compound, the GI50 (SF-295) was 27.5 µM (inactive), the GI50 (SF-539) was 41.8 µM (inactive) and the GI50 (SK-MEL-28) was 30.2 µM (inactive). The GI50 (SK-MEL-2) was 15.8 µM (inactive), the GI50 (SN12C) was 32.3 µM (inactive) and the GI50 (SNB-19) was > 100 µM (inactive). The GI50 (SNB-75) was 23.9 µM (inactive), the GI50 (SNB-78) was 39.4 µM (inactive) and the GI50 (SR) was 10.7 µM (inactive). The GI50 (SW-620) was 28.1 µM (inactive), the GI50 (TK-10) was 83.9 µM (inactive) and the GI50 (U-251) was 29.3 µM (inactive). The GI50 (UACC-257) was 15.9 µM (inactive), the GI50 (UACC-62) was 16.5 µM (inactive) and the GI50 (XF498) was 22.7 µM (inactive).
